In article PMC4635503, “High-affinity nitrate/nitrite transporters NrtA and NrtB of Aspergillus nidulans exhibit high specificity and different inhibitor sensitivity” (Microbiology, 2015):
In brackets after ≈: the same amount, converted by molar mass. Entries after “also recorded” stand apart in the source; their conditions may differ. Like-named read-outs stand apart in the source and are kept apart here.

What was measured:
[1] = system: A. nidulans WT strain (NrtA, NrtB); assay: MIC growth test on solid AMM, WT strain; format: cell-based, Aspergillus nidulans; settings: Aspergillus nidulans
Protocol: (§1) Fungal growth tests were carried out in standard Petri dishes containing defined Aspergillus minimal medium (AMM) agar ([Cove, 1976]), with sodium nitrate or proline as the sole nitrogen source, at 1 or 10 mM concentration. Strains were tested for inhibition by bicarbonate, formate, oxalate, chlorite, sulphite (all purchased as the sodium salt), chlorate (potassium salt), malonate (acid form) or caesium (chloride salt). Stock aqueous solutions of inhibitors were adjusted to pH 6.5 and prepared immediately before use. It should be noted that at pH 6.5, bicarbonate is in approximately 50 % equilibrium with carbonic acid. […] Cultures were incubated routinely at 37 °C for 48 h, and the growth response was scored.
(§2) Each treatment was carried out in five replicates. […] As caesium was utilized as a chloride salt, a control for potential inhibition by chloride was assessed, by growth on 100 mM sodium chloride (Fig. 4).

[2] = system: A. nidulans mutant nrtB110 (functional NrtA); assay: microbe, parasite or virus in culture; format: cell-based, Aspergillus nidulans; settings: nrtB110 (NrtA)
Protocol: as §1, §2

[3] = target: NrtA, NrtB (WT strain); assay: Net nitrate uptake assay and kinetics, WT strain; format: cell-based, Aspergillus nidulans; settings: WT (NrtA, NrtB), inhibitor concentration reducing net nitrate uptake rate by 50 % of control, mean ± SE
Protocol: (§3) These were performed on cultures grown in liquid AMM with 5 mM urea as nitrogen source for a total of 6.5 h at 37 °C ([Brownlee & Arst, 1983]). Urea was used as it (i) is a neutral nitrogen source, neither inducing nor repressing nitrate transport, (ii) has been used routinely in the past and (iii) permitted direct comparison with previously published results. […] Transporter activity was induced by the addition of 10 mM sodium nitrate 100 min prior to assay as described previously ([Brownlee & Arst, 1983]). Assays were carried out in triplicate, generally at pH 6.5, on three independently grown cultures for each strain and expressed as nmol nitrate removed from the medium min^ − 1 (mg dried mycelium)^ − 1, as discussed before ([Brownlee & Arst, 1983]; [Kinghorn et al., 2005]; [Unkles et al., 2012]). Both carbonic acid and bicarbonate chemical species can occur at pH 6.5. Thus potential inhibition of nitrate transport by carbonic acid/bicarbonate was tested at pH 6.5 and bicarbonate at pH 8.3.
(§4) To effectively assess net uptake, it is necessary that any export, i.e. simultaneous transport in the reverse direction, is minimal.
(§5) Values of K m and V max were calculated by linear regression of Lineweaver–Burk analyses (1/v against 1/s, where v is net uptake and s is substrate concentration). The kinetic values of nitrate transport by the WT and mutants were compared with those from a previous report ([Unkles et al., 2001]). […] Therefore the kinetic values in the absence of inhibitors from the present study were used as control values. Each K i value was determined by regression of the rates of net nitrate uptake transport versus the range of concentrations of a particular inhibitor: linear or nonlinear regression was used, depending on which type provided the highest r ^2 value. Calculated from each regression was the concentration of the inhibitor that reduced net nitrate uptake rate by 50 % of the control (without inhibitor) rate, which was assessed as the K i value. Lineweaver–Burk analyses were carried out to determine the nature of the inhibition of nitrate transport for each inhibitor.

[4] = system: NrtB; format: cell-based, Aspergillus nidulans; settings: for nature of inhibition of nitrate transport (Lineweaver–Burk): NrtB (expressed in nrtA1); for Ki: nrtA1 (NrtB), inhibitor concentration reducing net nitrate uptake rate by 50 % of control, mean ± SE
Protocol: as §3, §4, §5

[5] = system: NrtA, NrtB (WT strain); set-up: method as in Brownlee & Arst (1983); settings: 1 mM chlorate, cells grown for 6 or 17 h, ref Brownlee & Arst (1983); cited from earlier work
[6] = system: NrtB; set-up: method as in Brownlee & Arst (1983); settings: crnA1 (nrtA1) mutant, 1 mM chlorate, cells grown for 6 or 17 h; ref Brownlee & Arst (1983); cited from earlier work
[7] = target: T1, NrtA (Emericella nidulans, UniProt P22152); assay: cell-based; set-up: mutant nrtB110 (expressing a functional NrtA); endogenous in cells; host or cells: Aspergillus nidulans mycelium, knockout strain nrtB110, nitrate-induced; species or system Aspergillus nidulans; settings: for Ki: K i, nrtB110 (NrtA), inhibitor concentration reducing net nitrate uptake rate by 50 % of control, mean ± SE; for nature of inhibition of nitrate transport (Lineweaver–Burk): NrtA (expressed in nrtB110)
T1 sequence (P22152 whole entry): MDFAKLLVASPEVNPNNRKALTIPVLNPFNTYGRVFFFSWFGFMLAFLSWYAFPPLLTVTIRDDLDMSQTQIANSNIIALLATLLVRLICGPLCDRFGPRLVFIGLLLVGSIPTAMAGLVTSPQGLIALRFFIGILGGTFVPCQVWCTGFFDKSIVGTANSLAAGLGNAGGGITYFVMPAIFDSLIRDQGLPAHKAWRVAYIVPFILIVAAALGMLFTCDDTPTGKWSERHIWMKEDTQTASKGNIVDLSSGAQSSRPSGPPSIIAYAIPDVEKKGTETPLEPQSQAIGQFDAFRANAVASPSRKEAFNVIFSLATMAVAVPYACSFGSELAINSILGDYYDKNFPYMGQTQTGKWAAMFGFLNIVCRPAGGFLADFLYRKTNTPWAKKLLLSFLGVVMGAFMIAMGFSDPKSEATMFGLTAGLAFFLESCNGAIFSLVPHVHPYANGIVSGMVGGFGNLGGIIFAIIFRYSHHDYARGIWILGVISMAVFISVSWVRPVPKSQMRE
Protocol: as §3, §4, §5

[8] = target: T1, NrtA; set-up: mutant nrtB110 (expressing a functional NrtA); endogenous in cells; host or cells: Aspergillus nidulans mycelium, knockout strain nrtB110, nitrate-induced; method as in Zhou et al. (2000); settings: NrtA expressed in Xenopus oocytes; ref Zhou et al. (2000); cited from earlier work
[9] = system: A. nidulans double mutant tbl110 (nrtA747 nrtB110, neither transporter); assay: microbe, parasite or virus in culture; format: cell-based, Aspergillus nidulans; settings: T110 (neither transporter)
Protocol: as §1, §2

[10] = system: A. nidulans mutant nrtA1 (functional NrtB); assay: microbe, parasite or virus in culture; format: cell-based, Aspergillus nidulans; settings: Aspergillus nidulans
Protocol: as §1, §2

[11] = system: nitrate transport by NrtA and NrtB; assay: Net nitrate transport inhibition assays, strain not specified; format: cell-based, Aspergillus nidulans; settings: net nitrate transport; data not shown
Protocol: as §3, §4

[12] = system: NitA; settings: data not shown
[13] = 1 mM nitrate as sole nitrogen source, solid AMM, 37 °C
[14] = 1 mM proline as sole nitrogen source
[15] = 10 mM proline as sole nitrogen source
[16] = Aspergillus nidulans, 1 mM nitrate as sole nitrogen source
[17] = Aspergillus nidulans, 10 mM proline as sole nitrogen source
[18] = 10 mM nitrate as sole nitrogen source
[19] = Aspergillus nidulans, 1 mM proline as sole nitrogen source

SMILES | MIC [1, 13] | MIC [1, 14] | MIC [1, 15] | MIC [2, 16] | MIC [2, 17] | Ki [3] | nature of inhibition of nitrate transport (Lineweaver–Burk) [4] | Ki [4] | Ki [7] | nature of inhibition of nitrate transport (Lineweaver–Burk) [7] | substrate / transport by NrtA in oocytes [8] | further results
[O-][Cl+2]([O-])O [Chlorate, chlorate] | 100000 µM (≈ 8450 µg/mL) | 50000 µM (≈ 4220 µg/mL) | 25000 µM (≈ 2110 µg/mL) | 50000 µM (≈ 4220 µg/mL) | 50000 µM (≈ 4220 µg/mL) | 29.9 ± 3.7 mM | non-competitive inhibition | 44.3 ± 2.3 mM | 29.3 ± 2.8 mM | competition with nitrate | did not, however, observe transport | Ki ([3]; listed as chlorate): ~30 mM; nature of inhibition of nitrate transport (Lineweaver–Burk) ([4]; listed as chlorate): non-competitively; Ki ([4]; listed as chlorate): ~44 mM; net nitrate transport activity retained ([4]; nrtA1 (functional NrtB), 10 mM chlorate, data not shown): 93%; reduction of nitrate transport [5]: 80%; reduction of nitrate transport [6]: 80%; nature of inhibition of nitrate transport (Lineweaver–Burk) ([7]; listed as chlorate): competitive inhibitor; activity at 10000 µM ([7]; read-out: net nitrate transport activity retained): 65%
[O-][Cl+]O [Chlorite, chlorite] | 200 µM (≈ 13.7 µg/mL) | 500 µM (≈ 34.2 µg/mL) | 1000 µM (≈ 68.5 µg/mL) | 100 µM (≈ 6.85 µg/mL) | 3000 µM (≈ 205 µg/mL) | 0.35 ± 0.02 mM | non-competitive inhibition | 0.34 ± 0.02 mM | 0.49 ± 0.01 mM | competitive; also recorded: competition | substrate | MIC [1, 18]: 500 µM (≈ 34.2 µg/mL); MIC [9, 19]: > 500 µM; MIC [9, 17]: 5000 µM (≈ 342 µg/mL); MIC [9, 14]: >500 µM; MIC ([10]; 1 mM nitrate as sole nitrogen source): 200 µM (≈ 13.7 µg/mL); MIC [10, 14]: 500 µM (≈ 34.2 µg/mL); MIC [10, 18]: 500 µM (≈ 34.2 µg/mL); MIC [10, 15]: 2000 µM (≈ 137 µg/mL); MIC [2, 19]: 500 µM (≈ 34.2 µg/mL); MIC ([2]; Aspergillus nidulans, 10 mM nitrate as sole nitrogen source): 500 µM (≈ 34.2 µg/mL); MIC [2, 15]: 3000 µM (≈ 205 µg/mL); concentration sufficient to prevent transport of nitrate completely [11]: 1 mM; substrate for nitrite transporter NitA [12]: significant substrate
